Data taken from ChEMBL document CHEMBL3885881, “DrugMatrix”.

Species: Rattus norvegicus
Assay: DrugMatrix - Regimen: Daily Repeat
Assay type: toxicity, organism-based, Sprague-Dawley
Set-up: regimen Daily Repeat, gender Male, age 6-8 weeks
Settings: in vivo, po, route oral GAVAGE, vehicle 100 % WATER; for ABSOLUTE BASOPHIL / ABSOLUTE EOSINOPHIL / ABSOLUTE LYMPHOCYTE / ABSOLUTE MONOCYTE / ABSOLUTE SEGMENTED NEUTROPHIL / BASOPHIL / EOSINOPHIL / ERYTHROCYTE COUNT / HEMATOCRIT / HEMOGLOBIN / LEUKOCYTE COUNT / LYMPHOCYTE / MEAN CORPUSCULAR HEMOGLOBIN / MEAN CORPUSCULAR HEMOGLOBIN CONCENTRATION / MEAN CORPUSCULAR VOLUME / MONOCYTE / NEUTROPHIL / NUCLEATED RED BLOOD CELLS / PLATELET COUNT: tissue Blood; for ALANINE AMINOTRANSFERASE / ALBUMIN / ALKALINE PHOSPHATASE / ASPARTATE AMINOTRANSFERASE / BLOOD UREA NITROGEN / CARBON DIOXIDE / CHLORIDE / CHOLESTEROL / CREATINE PHOSPHOKINASE / CREATININE / GLUCOSE / LACTATE DEHYDROGENASE / LIPASE / PHOSPHORUS / POTASSIUM / SODIUM / TOTAL BILIRUBIN / TOTAL PROTEIN / URIC ACID: tissue Plasma
[1] = 0 mg/kg, 72 h, dose level Control, time 3 day
[2] = 0 mg/kg, 120 h, dose level Control, time 5 day
[3] = 200 mg/kg, 72 h, dose level Low, time 3 day

For `CC(O)CO` (centres undefined) [PROPYLENE GLYCOL], the “ABSOLUTE BASOPHIL” value [1] was 0 CELLS/uL, the “ABSOLUTE EOSINOPHIL” value [1] was 40 CELLS/uL and the “ABSOLUTE LYMPHOCYTE” value [1] was 13599.5 CELLS/uL. For the same compound, the “ABSOLUTE MONOCYTE” value [1] was 239.33 CELLS/uL, the “ABSOLUTE SEGMENTED NEUTROPHIL” value [1] was 1021.17 CELLS/uL and the BASOPHIL [1] was 0%. For the same compound, the EOSINOPHIL [1] was 0.33%, the “ERYTHROCYTE COUNT” value [1] was 5.71 x10E6/uL and the HEMATOCRIT [1] was 36.35%. The HEMOGLOBIN [1] was 14.05 G/DL, the “LEUKOCYTE COUNT” value [1] was 14.9 x10E3/uL and the LYMPHOCYTE [1] was 91%. For the same compound, the “MEAN CORPUSCULAR HEMOGLOBIN” value [1] was 24.62 pg, the “MEAN CORPUSCULAR HEMOGLOBIN CONCENTRATION” value [1] was 38.65 G/DL and the “MEAN CORPUSCULAR VOLUME” value [1] was 63.7 fL. For the same compound, the MONOCYTE [1] was 1.5%, the NEUTROPHIL [1] was 7.17% and the “NUCLEATED RED BLOOD CELLS” value [1] was 0.33 /100WBC. For the same compound, the “PLATELET COUNT” value [1] was 1225.5 x10E3/uL, the “ALANINE AMINOTRANSFERASE” value [1] was 48.5 u/L and the ALBUMIN [1] was 4.18 G/DL. The “ALKALINE PHOSPHATASE” value [1] was 390.83 u/L, the “ASPARTATE AMINOTRANSFERASE” value [1] was 89 u/L and the “BLOOD UREA NITROGEN” value [1] was 14.83 mg/dL. The “CARBON DIOXIDE” value [1] was 24.83 mmol/L, the CHLORIDE [1] was 100.83 MEQ/L and the CHOLESTEROL [1] was 72.5 mg/dL. For the same compound, the “CREATINE PHOSPHOKINASE” value [1] was 503 u/L, the CREATININE [1] was 0.2 mg/dL and the GLUCOSE [1] was 163 mg/dL. The “LACTATE DEHYDROGENASE” value [1] was 316.83 u/L, the LIPASE [1] was 9.83 u/L and the PHOSPHORUS [1] was 11.57 mg/dL. For the same compound, the POTASSIUM [1] was 6.16 MEQ/L, the SODIUM [1] was 142.62 MEQ/L and the “TOTAL BILIRUBIN” value [1] was 0.2 mg/dL. For the same compound, the “TOTAL PROTEIN” value [1] was 5.8 G/DL, the “URIC ACID” value [1] was 1.65 mg/dL and the “ABSOLUTE BASOPHIL” value [2] was 0 CELLS/uL. The “ABSOLUTE EOSINOPHIL” value [2] was 21 CELLS/uL, the “ABSOLUTE LYMPHOCYTE” value [2] was 14288.5 CELLS/uL and the “ABSOLUTE MONOCYTE” value [2] was 205.33 CELLS/uL. For the same compound, the “ABSOLUTE SEGMENTED NEUTROPHIL” value [2] was 968.5 CELLS/uL, the BASOPHIL [2] was 0% and the EOSINOPHIL [2] was 0.17%. The “ERYTHROCYTE COUNT” value [2] was 5.83 x10E6/uL, the HEMATOCRIT [2] was 36.53% and the HEMOGLOBIN [2] was 14.4 G/DL. The “LEUKOCYTE COUNT” value [2] was 15.48 x10E3/uL, the LYMPHOCYTE [2] was 92% and the “MEAN CORPUSCULAR HEMOGLOBIN” value [2] was 24.72 pg. For the same compound, the “MEAN CORPUSCULAR HEMOGLOBIN CONCENTRATION” value [2] was 39.43 G/DL, the “MEAN CORPUSCULAR VOLUME” value [2] was 62.68 fL and the MONOCYTE [2] was 1.33%. For the same compound, the NEUTROPHIL [2] was 6.5%, the “NUCLEATED RED BLOOD CELLS” value [2] was 0.17 /100WBC and the “PLATELET COUNT” value [2] was 1280.5 x10E3/uL. For the same compound, the “ALANINE AMINOTRANSFERASE” value [2] was 50 u/L, the ALBUMIN [2] was 4.28 G/DL and the “ALKALINE PHOSPHATASE” value [2] was 380.17 u/L. The “ASPARTATE AMINOTRANSFERASE” value [2] was 82.67 u/L, the “BLOOD UREA NITROGEN” value [2] was 15.33 mg/dL and the “CARBON DIOXIDE” value [2] was 27.17 mmol/L. The CHLORIDE [2] was 100.33 MEQ/L, the CHOLESTEROL [2] was 60.67 mg/dL and the “CREATINE PHOSPHOKINASE” value [2] was 441.5 u/L. For the same compound, the CREATININE [2] was 0.16 mg/dL, the GLUCOSE [2] was 146 mg/dL and the “LACTATE DEHYDROGENASE” value [2] was 189.33 u/L. It also gave an LIPASE [2] of 9.17 u/L, a PHOSPHORUS [2] of 11.67 mg/dL and a POTASSIUM [2] of 6.86 MEQ/L. The SODIUM [2] was 142.33 MEQ/L, the “TOTAL BILIRUBIN” value [2] was 0.2 mg/dL and the “TOTAL PROTEIN” value [2] was 6.12 G/DL. The “URIC ACID” value [2] was 1.82 mg/dL, the “ABSOLUTE BASOPHIL” value [3] was 0 CELLS/uL and the “ABSOLUTE EOSINOPHIL” value [3] was 56 CELLS/uL. For the same compound, the “ABSOLUTE LYMPHOCYTE” value [3] was 15882 CELLS/uL, the “ABSOLUTE MONOCYTE” value [3] was 135.33 CELLS/uL and the “ABSOLUTE SEGMENTED NEUTROPHIL” value [3] was 1393.33 CELLS/uL. The BASOPHIL [3] was 0%, the EOSINOPHIL [3] was 0.33% and the “ERYTHROCYTE COUNT” value [3] was 5.52 x10E6/uL. The HEMATOCRIT [3] was 35.37%, the HEMOGLOBIN [3] was 13.53 G/DL and the “LEUKOCYTE COUNT” value [3] was 17.47 x10E3/uL. For the same compound, the LYMPHOCYTE [3] was 90.67%, the “MEAN CORPUSCULAR HEMOGLOBIN” value [3] was 24.5 pg and the “MEAN CORPUSCULAR HEMOGLOBIN CONCENTRATION” value [3] was 38.27 G/DL. The “MEAN CORPUSCULAR VOLUME” value [3] was 64.1 fL, the MONOCYTE [3] was 0.67% and the NEUTROPHIL [3] was 8.33%. For the same compound, the “NUCLEATED RED BLOOD CELLS” value [3] was 0.33 /100WBC, the “PLATELET COUNT” value [3] was 1345.33 x10E3/uL and the “ALANINE AMINOTRANSFERASE” value [3] was 59 u/L. The ALBUMIN [3] was 4.47 G/DL, the “ALKALINE PHOSPHATASE” value [3] was 378.33 u/L and the “ASPARTATE AMINOTRANSFERASE” value [3] was 90.33 u/L. For the same compound, the “BLOOD UREA NITROGEN” value [3] was 16.33 mg/dL, the “CARBON DIOXIDE” value [3] was 27.33 mmol/L and the CHLORIDE [3] was 99.67 MEQ/L. For the same compound, the CHOLESTEROL [3] was 81.33 mg/dL, the “CREATINE PHOSPHOKINASE” value [3] was 318 u/L and the CREATININE [3] was 0.22 mg/dL. The GLUCOSE [3] was 153.67 mg/dL, the “LACTATE DEHYDROGENASE” value [3] was 212.33 u/L and the LIPASE [3] was 9 u/L. It also gave a PHOSPHORUS [3] of 13.4 mg/dL, a POTASSIUM [3] of 7.26 MEQ/L and an SODIUM [3] of 145.23 MEQ/L. For the same compound, the “TOTAL BILIRUBIN” value [3] was 0.2 mg/dL, the “TOTAL PROTEIN” value [3] was 6.13 G/DL and the “URIC ACID” value [3] was 2.2 mg/dL.
